Where “and” joins values, the source holds several entries; their conditions need not be identical. Identical values can stand only once. Counter-ions that a name gives are not always drawn.
What was measured:
[1] = Hydrodynamic radii of micelles by dynamic light scattering (DLS); type: physicochemical; conditions: 0.5 wt % amphiphile in water, 25° C.; mean ± SD, n = 3
Procedure: TFA-0 forms a hydrogel at concentrations >0.4 wt %, and this compound was not studied further. The other three TFAs are soluble to 5-10 wt % in aqueous media. Critical micelle concentrations (CMC) were determined by monitoring solubilization of a hydrophobic fluorescent dye, […] (Chattopadhyay et al., Anal. Biochem. 1984, 139, 408-412), and the hydrodynamic radii (Rh) of the micelles were determined via dynamic light scattering (DLS). Table 1 compares the data for TFAs with those for DDM, a conventional detergent that is very widely used for MP applications; DDM and the TFAs share maltose as their hydrophilic moieties. CMC values of the three TFAs are smaller than that of DDM, whether CMC is measured in units of mM or wt %.
Each TFA and DDM was dissolved in distilled, deionized (DI) water to obtain 1 mL of a solution containing 0.5 wt % amphiphile. Each solution was filtered through a 0.02 μm filter for DLS measurements. A 100-mW, 532-nm laser (Compass 315M-100, Coherent, Santa Clara, Calif.) illuminated a temperature-controlled glass cell at 25° C. that was filled with a refractive-index matching fluid (decahydronaphthalene, Fisher Scientific, Pittsburgh, Pa.). The scattered light was collected at an angle of 90° for about 30 minutes. Rh values were determined using the integrated dynamics software that analyzes the time scale of the scattered light intensity fluctuations by an autocorrelation function. The autocorrelation functions (ACFs) were obtained using a BI-9000AT digital autocorrelator (Brookhaven Instruments, Holtsville, N.Y.). Measurements were repeated three times.

[2] = Micelle characterization by gel filtration with triple detector analysis (TDA); type: physicochemical; conditions: for dn/dc, specific refractive index increment / IV, intrinsic viscosity / N, aggregation number of micelles / Rh (nm) / MMW, molecular weight of micelles / Mw/Mn, weight-averaged molecular weight divided by number-averaged molecular weight: TDA; for IV, intrinsic viscosity / N, aggregation number of micelles / Rh (nm) / MMW, molecular weight of micelles: 20 mM HEPES, 150 mM NaCl buffer; for IV, intrinsic viscosity / N, aggregation number of micelles / Rh (nm) / MMW, molecular weight of micelles / Mw/Mn, weight-averaged molecular weight divided by number-averaged molecular weight: mean ± SD; for MMW, molecular weight of micelles: TFA-1 n = 6, DDM n = 8; for Mw/Mn, weight-averaged molecular weight divided by number-averaged molecular weight: micelles; for MW of micelles in water: summary statement
Procedure: Micelles formed by DDM or by TFA-1 in pH 7.0 buffer (20 mM HEPES, 150 mM NaCl) were further characterized by gel filtration using a triple-detector system (Gatta et al., Anal. Biochem. 2010, 404, 21-29), analyzing light scattering, refractive index, and differential pressure (Table 2). In both cases the micelles are globular and monodisperse. TFA-1 micelles contain only 6 molecules, which contrasts with the ˜175 molecules in a DDM micelle. TFA-2 (R=ethyl) behaved similarly to TFA-1 (R=methyl), given the similarity in Rh, but TFA-3 (R=butyl) forms larger micelles. A related trend was observed among lipopeptides, with increasing length of the alkyl appendages leading to increasing micelle size (McGregor et al., Nat. Biotech. 2003, 21, 171-176).
The on-line SEC triple detector array (Gatta et al., Anal. Biochem. 404, 21 (2010)) (Viscotek Corporation, a Malvern Company) used for detergent analysis is composed of 1) a 660 nm differential refractometer for quantifying the concentration C (mg/mL) for all molecules according to their specific refractive index increment do/dc (mL/g) using Snell's Law of Refraction (RI signal=KRI*C*(dn/dc)/RISol), 2), a single right angle 90° static light scattering (RALS) detector for measuring the average mass M (Da) according to the Raleigh Light Scattering Equation for small molecules (LS90° signal=Mavg*RIsol^2*C*(dn/dc)^2)/KLS*Kopt, where Kopt=4*π^2/(λ^4*NA), and 3) an absolute differential viscometer (Haney, J. Appl. Polym. Sci. 30, 3023 (1985)) for measuring differential pressure (DP) and calculating intrinsic viscosity (IV; dL/g) according to Newtonian Viscosity (liquid layers) applied to tubes using Poiseulle's Law (DP signal=IV*C) and for calculating the radius of hydration Rh (nm) according to Einstein's volume of hydration equation for hard spheres (Rh=[( 3/10π)*IV*M/NA]^1/3).
The IV represents molecular shape and for proteins it can vary from 0.017 dl/g for globular shapes to 0.355 dl/g for elongated shapes to 0.499 dl/g for complete denaturation (Scheraga and Mandelkern, J. Chem. Phys. 75, 179-184 (1953); Dutta et al., J. Chromatogr. 536, 113-121 (1991); Chenal et al., J. Biol. Chem. 16, 284(3), 1781-1789 (2009)). The chromatography pump, injector, SEC column (0.75×60 cm TSK G3000 plus guard column), and TDArray are placed in a 4° C. cold box, while the buffer (degassed for more than 1 hr with stir prior use) is at room temperature (RT) to allow it to be run through a RT on-line degasser, which then runs though 3 ft of 4° C. stainless steel tubing before entering the SEC pump, injector and column. The extensive degassing insures an accurate DP measurement. With this configuration, the temperature at the detectors is 6° C. TDA buffer was 20 mM Hepes, 150 mM NaCl, […] and either 0.1 mM TFA-1 or 1 mM DDM. The refractive index of the solvent RISol was measured at 10° C. using an Anton Paar Abbemat temperature controlled refractometer at 589.2 nm. Triple detection data at every 5 Hz data point throughout the complete SEC peak were used for all analysis.
For calibration, the detector response factors KRI and KLS were measured using Ovalbumin Fraction VII (Sigma). Prior to calibration, ovalbumin was first purified by SEC (280 nm detection) at 4° C. to remove small populations of dimers and aggregates, and to insure Gaussian detector peaks for TDA calibration. Ovalbumin was solubilized at 26 mg/mL in TDA buffer at 4° C. for 10 min and clarified by centrifugation (10 min 15,000×g); collecting the top 30% of the SEC elution peak from 500 μL injections yielded monodisperse ovalbumin at 5-7 mg/mL. Ovalbumin mass was 44.3 kDa (Sigma Product Information sheet and references therein) with a 0.701 dA280nm/dc (Pace et al., Prot. Sci. 4(11), 2411-2423 (1995)) and 0.187 dn/dc (Maezawa et al., Biochem. Biophys. Acta 747, 291-297 (1983); Hayashi et al., Methods Enzymol. 172, 514-528 (1989)). […]

CCCCCCCCCCCCO[C@@H]1O[C@H](CO)[C@@H](O[C@H]2O[C@H](CO)[C@@H](O)[C@H](O)[C@H]2O)[C@H](O)[C@H]1O [DDM, dodecyl-β-D-maltoside, reference compound]
Rh (nm), hydrodynamic radius of micelles measured by dynamic light scattering [1]: 3.4 ± 0.03 nm | dn/dc, specific refractive index increment [2]: 0.130 mL/g | IV, intrinsic viscosity [2]: 0.028 ± 0.009 dL/g | N, aggregation number of micelles [2]: 176.4 ± 1.3 | Rh (nm) [2]: 3.42 ± 0.04 nm | MMW, molecular weight of micelles [2]: 89982 ± 663 Da | Mw/Mn, weight-averaged molecular weight divided by number-averaged molecular weight [2]: 1.01 ± 0.00 | MW of micelles in water [2]: ~90 kD

C[C@H](CCC(=O)N(C)CCCN(C)C(=O)CC[C@@H](C)[C@H]1CC[C@H]2[C@@H]3CC[C@@H]4C[C@H](O[C@@H]5O[C@H](CO)[C@@H](O[C@H]6O[C@H](CO)[C@@H](O)[C@H](O)[C@H]6O)[C@H](O)[C@H]5O)CC[C@]4(C)[C@H]3C[C@H](O[C@@H]3O[C@H](CO)[C@@H](O[C@H]4O[C@H](CO)[C@@H](O)[C@H](O)[C@H]4O)[C@H](O)[C@H]3O)[C@]12C)[C@H]1CC[C@H]2[C@@H]3CC[C@@H]4C[C@H](O[C@@H]5O[C@H](CO)[C@@H](O[C@H]6O[C@H](CO)[C@@H](O)[C@H](O)[C@H]6O)[C@H](O)[C@H]5O)CC[C@]4(C)[C@H]3C[C@H](O[C@@H]3O[C@H](CO)[C@@H](O[C@H]4O[C@H](CO)[C@@H](O)[C@H](O)[C@H]4O)[C@H](O)[C@H]3O)[C@]12C [TFA-1]
Rh (nm), hydrodynamic radius of micelles measured by dynamic light scattering [1]: 1.9 ± 0.08 nm | dn/dc, specific refractive index increment [2]: 0.173 mL/g | IV, intrinsic viscosity [2]: 0.036 ± 0.005 dL/g | N, aggregation number of micelles [2]: 6 and 6.2 ± 0.07 | Rh (nm) [2]: 1.96 ± 0.01 nm | MMW, molecular weight of micelles [2]: 13279 ± 157 Da | Mw/Mn, weight-averaged molecular weight divided by number-averaged molecular weight [2]: 1.00 ± 0.00 | MW of micelles in water [2]: ~13 kD
